Results published in US5763587A, “Process for the synthesis of amikacin” (Gist Brocades Italy Spa, priority 1987, dated 1998).

Experiments:
[1] = test system: mice; assay: Comparison of death rate, toxicity and acute general tolerability in mice by intravenous administration; type: in vivo
From the text: (§1) Some experiments have been thus carried out for the comparison of the death rate, toxicity and acute general tolerability, between the product available in the market from Bristol Myers (BB-K8), amikacin produced according to the synthesis of the present invention and the potential impurities (BB K11, BB K29 and the diacylate with L-HABA at N-1 and N-3"), in mice by intravenous administration (caudal vein) to groups of 10 animals. The LD50 values have been calculated by the Finney-Probits method.

[2] = as above; type: in vivo; settings: mouse, in vivo, iv, mice, intravenous (caudal vein), groups of 10 animals, Finney-Probits method
From the text: as §1

Structure (SMILES)	LD50 ([1]; mice, intravenous (caudal vein), groups of 10 animals, Finney-Probits method) [mg/kg]	LD50 [2] [mg/kg]	toxicity compared with BB-K29 (in words) [1]	toxicity compared with amikacin (in words) [1]
NCC[C@H](O)C(=O)N[C@@H]1C[C@H](N)[C@@H](O[C@H]2O[C@H](CN)[C@@H](O)[C@H](O)[C@H]2O)[C@H](O)[C@H]1O[C@H]1O[C@H](CO)[C@@H](O)[C@H](N)[C@H]1O [Amikacin, 0-3-amino-3-desoxy-alpha-D-glucopyranosyl-(1→6)-0-[6--amino-6-desoxy-alpha-D-glucopyranosyl-(1→)]-N^1-(4-amino-2-hydroxy-1-oxybutyl)-2-desoxy-D-streptamine]	241	–	–	–
NCC[C@H](O)C(=O)N[C@@H]1C[C@H](N)[C@@H](O[C@H]2O[C@H](CN)[C@@H](O)[C@H](O)[C@H]2O)[C@H](O)[C@H]1O[C@H]1O[C@H](CO)[C@@H](O)[C@H](N)[C@H]1O [BB-K8 Bristol]	–	202	–	–
NCC[C@H](O)C(=O)N[C@@H]1[C@@H](O)[C@@H](O[C@@H]2[C@@H](O)[C@H](O[C@H]3O[C@H](CN)[C@@H](O)[C@H](O)[C@H]3O)[C@@H](N)C[C@H]2N)O[C@H](CO)[C@H]1O [BB-K11]	–	356	lower	–
NCC[C@H](O)C(=O)N[C@H]1C[C@@H](N)[C@H](O[C@H]2O[C@H](CO)[C@@H](O)[C@H](N)[C@H]2O)[C@@H](O)[C@@H]1O[C@H]1O[C@H](CN)[C@@H](O)[C@H](O)[C@H]1O [BB-K29]	–	126	–	more toxic than amikacin
NCC[C@H](O)C(=O)N[C@@H]1[C@@H](O)[C@@H](O[C@@H]2[C@@H](O)[C@H](O[C@H]3O[C@H](CN)[C@@H](O)[C@H](O)[C@H]3O)[C@@H](N)C[C@H]2NC(=O)[C@@H](O)CCN)O[C@H](CO)[C@H]1O [Diacylate (N-1 and N-3")]	–	268	lower	–
